Patent publication US20240190874A1, “SMALL MOLECULE DEGRADERS OF ANDROGEN RECEPTOR” (THE REGENTS OF THE UNIVERSITY OF MICHIGAN, priority 2021, published 2024)
Like-named read-outs stand apart in the source and are kept apart here.

Assays:
Type in all cases: cell-based
LNCaP cells = assay: Cellular potency (IC50) in LNCaP cells
Protocol: (§1) Biological Assays. LNCaP and VCaP cells used were purchased from American Type Culture Collection (ATCC). LNCaP were grown in RPMI 1640 (Invitrogen) and VCaP cells were grown in DMEM with Glutamax (Invitrogen). All of the cells were supplemented with 10% fetal bovine serum (Invitrogen) at 37° C. in a humidified 5% CO2 incubator.

AR = biological target: T1, AR (Homo sapiens, UniProt P10275); assay: Degradation of AR in VCaP cells; conditions: VCaP cells; for Dmax: VCaP
T1 construct: Degradation of AR; Cellular potency; host or cells: VCaP cells
T1 sequence (P10275 1-920): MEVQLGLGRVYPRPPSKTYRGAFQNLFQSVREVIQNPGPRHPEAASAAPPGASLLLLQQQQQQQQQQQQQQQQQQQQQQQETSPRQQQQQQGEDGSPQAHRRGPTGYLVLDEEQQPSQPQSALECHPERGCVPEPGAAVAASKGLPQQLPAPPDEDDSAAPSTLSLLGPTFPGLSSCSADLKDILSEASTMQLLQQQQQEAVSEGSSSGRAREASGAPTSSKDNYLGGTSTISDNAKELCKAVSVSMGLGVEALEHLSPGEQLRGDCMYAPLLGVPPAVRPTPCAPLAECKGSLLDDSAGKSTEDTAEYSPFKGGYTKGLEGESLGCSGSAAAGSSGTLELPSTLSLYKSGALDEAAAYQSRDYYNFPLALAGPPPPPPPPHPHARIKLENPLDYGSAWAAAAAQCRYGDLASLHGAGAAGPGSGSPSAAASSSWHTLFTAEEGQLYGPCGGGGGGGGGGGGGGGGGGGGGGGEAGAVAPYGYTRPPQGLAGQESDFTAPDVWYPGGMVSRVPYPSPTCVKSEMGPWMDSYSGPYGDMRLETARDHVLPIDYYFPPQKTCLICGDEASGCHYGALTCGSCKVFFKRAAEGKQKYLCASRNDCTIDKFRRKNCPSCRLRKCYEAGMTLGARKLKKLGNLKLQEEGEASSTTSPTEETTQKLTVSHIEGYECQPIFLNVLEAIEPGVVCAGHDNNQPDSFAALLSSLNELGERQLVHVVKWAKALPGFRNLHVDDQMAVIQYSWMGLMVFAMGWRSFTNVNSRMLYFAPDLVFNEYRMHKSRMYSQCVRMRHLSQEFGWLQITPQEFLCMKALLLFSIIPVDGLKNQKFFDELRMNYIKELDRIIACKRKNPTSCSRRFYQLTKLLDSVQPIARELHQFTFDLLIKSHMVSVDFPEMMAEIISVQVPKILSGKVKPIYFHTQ
Protocol: as §1

VCaP cells = assay: Cellular potency (IC50) in VCaP cells
Protocol: as §1

Row | SMILES | IC50 (LNCaP cells) [µM] | DC50 (AR) [µM] | Dmax (AR) [%] | IC50 (VCaP cells) [µM] | IC50 (LNCaP cells; Homo sapiens, LNCaP) [µM] | IC50 (VCaP cells; Homo sapiens, VCaP) [µM] | Degradation of AR in VCaP cells Dmax (AR)
1 | C[C@H]1CC2(CCN(c3ccc(CN4CCC(C5CN(c6ccc7c(c6)C(=O)N(C6CCC(=O)NC6=O)C7=O)C5)CC4)c(F)c3)CC2)CN1c1ccc(C#N)c(Cl)c1 (stereo partly shown) [compound 9] | < 0.01 | < 0.001 | > 90 | < 0.01 |  |  | 
2 | C[C@H]1CC2(CCN(c3ccc(CN4CCN(C5CCN(c6ccc7c(c6)C(=O)N(C6CCC(=O)NC6=O)C7=O)CC5)CC4)c(F)c3)CC2)CN1c1ccc(C#N)c(Cl)c1 (stereo partly shown) [compound 10] | < 0.01 | < 0.01 | > 90 | < 0.01 |  |  | 
3 | C=C1CCC(N2C(=O)c3ccc(N4CC(C5CCN(Cc6ccc(N7CCC8(CC7)C[C@H](C)N(c7ccc(C#N)c(Cl)c7)C8)cc6)CC5)C4)cc3C2=O)C(=O)N1 (stereo partly shown) [compound 16] |  |  | > 90 |  | < 0.01 | < 0.01 | 
4 | C=C1CCC(N2C(=O)c3ccc(N4CCC(C5CCN(Cc6ccc(N7CCC8(CC7)C[C@H](C)N(c7ccc(C#N)c(Cl)c7)C8)cc6)CC5)CC4)cc3C2=O)C(=O)N1 (stereo partly shown) [compound 17] |  |  | 70 to 90 |  | < 0.1 | < 0.1 | 
5 | C=C1CCC(N2C(=O)c3ccc(N4CCC(N5CCN(Cc6ccc(N7CCC8(CC7)C[C@H](C)N(c7ccc(C#N)c(Cl)c7)C8)cc6)CC5)CC4)cc3C2=O)C(=O)N1 (stereo partly shown) [compound 18] |  |  | > 90 |  | < 0.01 | < 0.01 | 
6 | C[C@H]1CC2(CCN(c3ccc(CN4CCC(N5Cc6cc7c(cc6C5)C(=O)N(C5CCC(=O)NC5=O)C7=O)CC4)cc3)CC2)CN1c1ccc(C#N)c(Cl)c1 (stereo partly shown) [compound 19] |  | < 0.1 | 70 to 90 |  | < 0.1 | < 0.1 | 
7 | C[C@H]1CC2(CCN(c3ccc(CN4CCC(CN5Cc6cc7c(cc6C5)C(=O)N(C5CCC(=O)NC5=O)C7=O)CC4)cc3)CC2)CN1c1ccc(C#N)c(Cl)c1 (stereo partly shown) [compound 20] |  | < 0.1 | 70 to 90 |  | < 0.1 | < 0.1 | 
8 | C[C@H]1CC2(CCN(c3ccc(C4CCN(CC5CN(c6ccc7c(c6)C(=O)N(C6CCC(=O)NC6=O)C7=O)C5)CC4)cc3)CC2)CN1c1ccc(C#N)c(Cl)c1 (stereo partly shown) [compound 21] |  | < 0.001 | > 90 |  | < 0.01 | < 0.01 | 
9 | C[C@H]1CC2(CCN(c3ccc(C4CCN(C5CN(c6ccc7c(c6)C(=O)N(C6CCC(=O)NC6=O)C7=O)C5)CC4)cc3)CC2)CN1c1ccc(C#N)c(Cl)c1 (stereo partly shown) [compound 22] |  | < 0.1 | 70 to 90 |  | < 0.1 | < 0.1 | 
10 | C=C1CCC(N2C(=O)c3ccc(N4CC(N5CCC(Cc6ccc(N7CCC8(CC7)C[C@H](C)N(c7ccc(C#N)c(Cl)c7)C8)cc6)CC5)C4)cc3C2=O)C(=O)N1 (stereo partly shown) [compound 23] |  |  | > 90 |  | < 0.01 | < 0.01 | 
11 | C=C1CCC(N2C(=O)c3ccc(N4CCC(N5CCC(Cc6ccc(N7CCC8(CC7)C[C@H](C)N(c7ccc(C#N)c(Cl)c7)C8)cc6)CC5)CC4)cc3C2=O)C(=O)N1 (stereo partly shown) [compound 24] |  |  | > 90 |  | < 0.01 | < 0.01 | 
12 | C[C@H]1CC2(CCN(c3ccc(CC4CCN(CC5CN(c6ccc7c(c6)C(=O)N(C6CCC(=O)NC6=O)C7=O)C5)CC4)cc3)CC2)CN1c1ccc(C#N)c(Cl)c1 (stereo partly shown) [compound 25] |  | < 0.001 | > 90 |  | < 0.01 | < 0.01 | 
13 | C[C@H]1CC2(CCN(c3ccc(CC4CCN(CC5CCN(c6ccc7c(c6)C(=O)N(C6CCC(=O)NC6=O)C7=O)CC5)CC4)cc3)CC2)CN1c1ccc(C#N)c(Cl)c1 (stereo partly shown) [compound 26] |  | < 0.001 | > 90 |  | < 0.01 | < 0.01 | 
14 | C[C@H]1CC2(CCN(c3ccc(N4CCN(C5CN(c6ccc7c(c6)C(=O)N(C6CCC(=O)NC6=O)C7=O)C5)CC4)cc3)CC2)CN1c1ccc(C#N)c(Cl)c1 (stereo partly shown) [compound 27] |  | < 0.001 | > 90 |  | < 0.01 | < 0.01 | 
15 | C[C@H]1CC2(CCN(c3ccc(N4CCN(CC5CN(c6ccc7c(c6)C(=O)N(C6CCC(=O)NC6=O)C7=O)C5)CC4)cc3)CC2)CN1c1ccc(C#N)c(Cl)c1 (stereo partly drawn) [compound 28, 2-chloro-4-((3S)-8-(4-(4-((1-(2-(2,6-dioxopiperidin-3-yl)-1,3-dioxoisoindolin-5-yl)azetidin-3-yl)methyl)piperazin-1-yl)phenyl)-3-methyl-2,8-diazaspiro[4.5]decan-2-yl)benzonitrile] |  |  | > 90 |  | < 0.01 | < 0.01 | 
16 | C[C@H]1CC2(CCN(c3ccc(N4CCN(C5CCN(c6ccc7c(c6)C(=O)N(C6CCC(=O)NC6=O)C7=O)CC5)CC4)cc3)CC2)CN1c1ccc(C#N)c(Cl)c1 (stereo partly shown) [compound 29] |  | < 0.1 | > 90 |  | < 0.1 | < 0.1 | 
17 | C[C@H]1CC2(CCN(c3ccc(N4CCN(CC5CCN(c6ccc7c(c6)C(=O)N(C6CCC(=O)NC6=O)C7=O)CC5)CC4)cc3)CC2)CN1c1ccc(C#N)c(Cl)c1 (stereo partly shown) [compound 30] |  | < 0.001 | > 90 |  | < 0.01 | < 0.01 | 
18 | C[C@H]1CC2(CCN(c3ccc(N4CCN(CC5CN(c6ccc7c(c6)C(=O)N(C6CCC(=O)NC6=O)C7=O)C5)CC4)cn3)CC2)CN1c1ccc(C#N)c(Cl)c1 (stereo partly shown) [compound 31] |  | < 0.001 | > 90 |  | < 0.01 | < 0.01 | 
19 | C[C@H]1CC2(CCN(c3ccc(N4CCN(CC5CCN(c6ccc7c(c6)C(=O)N(C6CCC(=O)NC6=O)C7=O)CC5)CC4)cn3)CC2)CN1c1ccc(C#N)c(Cl)c1 (stereo partly shown) [compound 32] |  | < 0.001 | > 90 |  | < 0.01 | < 0.01 | 
20 | C[C@H]1CC2(CCN(c3ccc(N4CCN(C5CN(c6ccc7c(c6)C(=O)N(C6CCC(=O)NC6=O)C7=O)C5)CC4)cn3)CC2)CN1c1ccc(C#N)c(Cl)c1 (stereo partly shown) [compound 33] |  | < 0.01 | 70 to 90 |  | < 0.01 | < 0.01 | 
21 | C[C@H]1CC2(CCN(c3ccc(N4CCN(CC5CN(c6ccc7c(c6)C(=O)N(C6CCC(=O)NC6=O)C7=O)C5)CC4)nc3)CC2)CN1c1ccc(C#N)c(Cl)c1 (stereo partly shown) [compound 34] |  | < 0.001 | > 90 |  | < 0.01 | < 0.01 | 
22 | C[C@H]1CC2(CCN(c3ccc(N4CCN(CC5CCN(c6ccc7c(c6)C(=O)N(C6CCC(=O)NC6=O)C7=O)CC5)CC4)nc3)CC2)CN1c1ccc(C#N)c(Cl)c1 (stereo partly shown) [compound 35] |  | < 0.001 | > 90 |  | < 0.01 | < 0.01 | 
23 | C[C@H]1CC2(CCN(c3ccc(N4CCN(C5CN(c6ccc7c(c6)C(=O)N(C6CCC(=O)NC6=O)C7=O)C5)CC4)nc3)CC2)CN1c1ccc(C#N)c(Cl)c1 (stereo partly shown) [compound 36] |  | < 0.001 | > 90 |  | < 0.01 | < 0.01 | 
24 | C[C@H]1CC2(CCN(c3ccc(N4CCN(CC5CN(c6ccc7c(c6)C(=O)N(C6CCC(=O)NC6=O)C7=O)C5)CC4)cc3F)CC2)CN1c1ccc(C#N)c(Cl)c1 (stereo partly shown) [compound 37] |  | < 0.001 | > 90 |  | < 0.01 | < 0.01 | 
25 | C=C1CCC(N2C(=O)c3ccc(N4CCC(CN5CCN(c6ccc(N7CCC8(CC7)C[C@H](C)N(c7ccc(C#N)c(Cl)c7)C8)c(F)c6)CC5)CC4)cc3C2=O)C(=O)N1 (stereo partly shown) [compound 38] |  |  | > 90 |  | < 0.01 | < 0.01 | 
26 | C[C@H]1CC2(CCN(c3ccc(N4CCN(C5CN(c6ccc7c(c6)C(=O)N(C6CCC(=O)NC6=O)C7=O)C5)CC4)cc3F)CC2)CN1c1ccc(C#N)c(Cl)c1 (stereo partly shown) [compound 39] |  | < 0.001 | > 90 |  | < 0.01 | < 0.01 | 
27 | C[C@H]1CC2(CCN(c3ccc(CN4CCN(C5CN(c6ccc7c(c6)C(=O)N(C6CCC(=O)NC6=O)C7=O)C5)CC4)c(F)c3)CC2)CN1c1ccc(C#N)c(Cl)c1 (stereo partly shown) [compound 40] | < 0.1 | < 0.01 |  | < 0.1 |  |  | A (A = >90%)
28 | C[C@H]1CC2(CCN(c3ccc(CN4CCC(C5CN(c6ccc7c(c6)C(=O)N(C6CCC(=O)NC6=O)C7=O)C5)CC4)c(F)c3)CC2)CN1c1ccc(C#N)c(Cl)c1 (stereo partly shown) [compound 41] | < 0.1 | < 0.01 |  | < 0.1 |  |  | A (A = >90%)
29 | C[C@H]1CC2(CCN(c3ccc(CN4CCN(C5CCN(c6ccc7c(c6)C(=O)N(C6CCC(=O)NC6=O)C7=O)CC5)CC4)c(F)c3)CC2)CN1c1ccc(C#N)c(Cl)c1 (stereo partly shown) [compound 42] | < 0.1 | < 0.01 |  | < 0.1 |  |  | A (A = >90%)
